Test results as given in EP2926811A1, “ARTEMETHER-CONTAINING PHARMACEUTICAL COMPOSITION, PREPARATION, AND USE THEREOF” (Kunming Pharmaceutical Corp., priority 2012, dated 2014).
Read-outs that look alike come from different tables or passages of the source.

Tests used:
Format in all cases: cell-based
A549 cells = assay: modified MTT method, proliferation of A549 cells; conditions: Homo sapiens, read-out: IC50 on the growth of A549 cells
Description: (§1) Five test concentrations 2, 10, 50, 250 and 500 µM were set for each of five derivatives of artemisinin, artemether drug substance, artemisinin, dihydroartemisinin, artesunate were dissolved with dimethyl sulfoxide (DMSO), while the lyophilized powder of artemether was dissolved with normal saline (N.S.), followed by addition of a certain amount of RPMI 1640 complete culture solution to formulate a high-concentration solution, and each of the low-concentration solutions was formulated by proportionate dilution from the high-concentration solution.
(§2) The concentrations of DMSO contained in the solutions at the two relatively high concentrations 500 and 250 µM for the artemether drug substance, artemisinin, dihydroartemisinin, artesunate, used as solvent controls, were formulated with […] culture solution, at which time the test concentrations of DMSO were 1% and 0.5%. The concentrations of the excipients contained in the solutions at the two relatively high concentrations 500 and 250 µM for the preparation of lyophilized powder of artemether were used as solvent controls.
(§3) The positive control was an anti-cancer drug adriamycin (ADM), which was set at three test concentrations (final concentrations) of 0.1, 1 and 10 µg/ml. To ADM stock solution (1 mg/ml) a certain amount of PRMI 1640 complete culture solution was added, to formulate a high-concentration solution, and each of the low-concentration solutions were formulated by proportionate dilutions from the high-concentration solution.
(§4) HL-60: (human promyelocytic leukemia cell line); K562 (human chronic myelocytic leukemia cell line); HT-29 (human colon cancer cell line); PC-3 (human prostate cancer cell line); A549 (human non-small cell lung cancer cell line); MKN-28 (human gastric cancer cell line); Hep2 (human laryngeal cancer cell line), all of which were purchased from Cell Bank of Shanghai Institutes for Biological Sciences, the Chinese Academy of Sciences.
(§5) Influence of the five test samples on the proliferation of 7 human tumor cell lines was determined via a modified MTT method.
(§6) Cells in logarithmic growth phase were taken, adjusted to a certain concentration and then added into a 96 well culture plate. After culture of adherent cells for a period until adherence, the test samples were added; and for suspension cells, the test samples were added after inoculation. 5 test concentrations 2, 10, 50, 250 and 500 µM were set, with 3 parallel wells for each concentration, 10 µl/well; the solvent controls were 0.5% and 1% of isovolumetric DMSO, and the positive controls was ADM at 3 concentrations 0.1, 1 and 10 µg/ml. The samples were loaded followed by culture for a period of time in an incubator at 37°C, 5% CO2, followed by addition of MTT (5 mg/ml) at 20 µl/well, and continued to be cultured for a period of time and added with a three-combined solution [10% SDS - 5% isobutanol - 0.012 mol/L HCl (W/V/V)]. After dissolving in uniformity, it was continued to be placed in the incubator at 37°C, 5% CO2 for a period of time, and the OD value of each well was determined under a wavelength of 570 nm with a microplate reader, according to which the results were calculated.
(§7) The cellular proliferation inhibition rate was calculated in accordance with the following equation: Inhibition rate (%) = (OD valuecontrol well-OD valuesample well)/OD valuecontrol well × 100% [formula]
(§8) When the inhibition rate of DMSO on cells was more than 15%, calculation was carried out using the following equation: Inhibition rate (%) = (OD valuesolvent group-OD valueadministered well)/OD valuesolvent group × 100% [formula]
(§9) The inhibition rate was calculated by using Microsoft Excel 2003, and median inhibitory concentration IC50 was calculated with a LOGIT method, which was used as an indicator for judging the inhibitory capability.

PC-3 cells = assay: modified MTT method, proliferation of PC-3 cells; conditions: Homo sapiens, read-out: IC50 on the growth of PC-3 cells
Description: as §1, §2, §3, §4, §5, §6, §7, §8, §9

HL-60 cells = assay: modified MTT method, proliferation of HL-60 cells; conditions: Homo sapiens, read-out: IC50 on the growth of HL-60 cells
Description: as §1, §2, §3, §4, §5, §6, §7, §8, §9

HT-29 cells = assay: modified MTT method, proliferation of HT-29 cells; conditions: Homo sapiens
Description: as §1, §2, §3, §4, §5, §6, §7, §8, §9
(§10) According to the results of preliminary screening, further experiments were adjusted such that more sensitive cell lines were screened out. […]

K562 cells = assay: modified MTT method, proliferation of K562 cells; conditions: Homo sapiens, read-out: IC50 on the growth of K562 cells
Description: as §1, §2, §3, §4, §5, §6, §7, §8, §9

Hep2 cells = assay: modified MTT method, proliferation of Hep2 cells; conditions: Homo sapiens, HEp-2, 72 h, secondary screening
Description: as §1, §2, §3, §4, §5, §6, §7, §8, §9, §10

MKN-28 cells = assay: modified MTT method, proliferation of MKN-28 cells; conditions: Homo sapiens, MKN-28, 72 h, secondary screening
Description: as §1, §2, §3, §4, §5, §6, §7, §8, §9, §10

For `C[C@H]1[C@@H](O)O[C@@H]2O[C@@]3(C)CC[C@H]4[C@H](C)CC[C@@H]1[C@@]24OO3` [dihydroartemisinin], the IC50 (A549 cells; A549, 24 h, Batch 1, 24 h) was greater than 1000 µM, the IC50 (A549 cells; A549, 24 h, Batch 2, 24 h) was 935 µM and the IC50 (A549 cells; A549, 48 h, Batch 1, 48 h) was greater than 1000 µM. For the same compound, the IC50 (A549 cells; A549, 48 h, Batch 2, 48 h) was 221 µM, the IC50 (A549 cells; A549, 72 h, Batch 1, 72 h) was greater than 1000 µM and the IC50 (A549 cells; A549, 72 h, Batch 2, 72 h) was 192 µM. The IC50 (PC-3 cells; PC-3, 24 h, Batch 1, 24 h) was 660 µM, the IC50 (PC-3 cells; PC-3, 24 h, Batch 2, 24 h) was greater than 1000 µM and the IC50 (PC-3 cells; PC-3, 48 h, Batch 1, 48 h) was greater than 1000 µM. It also gave an IC50 (PC-3 cells; PC-3, 48 h, Batch 2, 48 h) greater than 1000 µM, an IC50 (PC-3 cells; PC-3, 72 h, Batch 1, 72 h) of 230 µM and an IC50 (PC-3 cells; PC-3, 72 h, Batch 2, 72 h) greater than 1000 µM. The IC50 (HL-60 cells; HL-60, 24 h, Batch 1, 24 h) was greater than 1000 µM, the IC50 (HL-60 cells; HL-60, 24 h, Batch 2, 24 h) was 74.4 µM and the IC50 (HL-60 cells; HL-60, 48 h, Batch 1, 48 h) was greater than 1000 µM. It also gave an IC50 (HL-60 cells; HL-60, 48 h, Batch 2, 48 h) of 16.3 µM, an IC50 (HL-60 cells; HL-60, 72 h, Batch 1, 72 h) greater than 1000 µM and an IC50 (HL-60 cells; HL-60, 72 h, Batch 2, 72 h) of 116 µM. It also gave an IC50 (HT-29 cells; HT-29, 24 h, preliminary screening, Batch 1, 24 h, read-out: IC50 on the growth of HT-29 cells) of 288 µM, an IC50 (HT-29 cells; HT-29, 24 h, preliminary screening, Batch 2, 24 h, read-out: IC50 on the growth of HT-29 cells) of 280 µM and an IC50 (HT-29 cells; HT-29, 48 h, preliminary screening, Batch 1, 48 h, read-out: IC50 on the growth of HT-29 cells) of 337 µM. For the same compound, the IC50 (HT-29 cells; HT-29, 48 h, preliminary screening, Batch 2, 48 h, read-out: IC50 on the growth of HT-29 cells) was 433 µM, the IC50 (HT-29 cells; HT-29, 72 h, preliminary screening, Batch 1, 72 h, read-out: IC50 on the growth of HT-29 cells) was 160 µM and the IC50 (HT-29 cells; HT-29, 72 h, preliminary screening, Batch 2, 72 h, read-out: IC50 on the growth of HT-29 cells) was 258 µM. The IC50 (HT-29 cells; HT-29, 72 h, secondary screening, 72 h, Batch 1, read-out: IC50 on the growth of HT-29 cells (72 h)) was 236 µM, the IC50 (HT-29 cells; HT-29, 72 h, secondary screening, 72 h, Batch 2, read-out: IC50 on the growth of HT-29 cells (72 h)) was 173 µM and the IC50 (HT-29 cells; HT-29, 72 h, secondary screening, 72 h, Batch 3, read-out: IC50 on the growth of HT-29 cells (72 h)) was 148 µM. The IC50 (HT-29 cells; HT-29, 72 h, secondary screening, 72 h, average, read-out: IC50 on the growth of HT-29 cells (72 h)) was 143 µM, the IC50 (K562 cells; K562, 24 h, Batch 1, 24 h) was greater than 1000 µM and the IC50 (K562 cells; K562, 24 h, Batch 2, 24 h) was 144 µM. The IC50 (K562 cells; K562, 24 h, Batch 3, 24 h) was 146 µM, the IC50 (K562 cells; K562, 48 h, Batch 1, 48 h) was 997 µM and the IC50 (K562 cells; K562, 48 h, Batch 2, 48 h) was 28 µM. It also gave an IC50 (K562 cells; K562, 48 h, Batch 3, 48 h) of 80.7 µM, an IC50 (K562 cells; K562, 72 h, Batch 1, 72 h) of 492 µM and an IC50 (K562 cells; K562, 72 h, Batch 2, 72 h) of 44.8 µM. It also gave an IC50 (K562 cells; K562, 72 h, Batch 3, 72 h) of 60.5 µM, an IC50 (Hep2 cells; Batch 1, read-out: IC50 on the growth of Hep2 cells (72 h)) of 114 µM and an IC50 (Hep2 cells; Batch 2, read-out: IC50 on the growth of Hep2 cells (72 h)) of 88.2 µM. For the same compound, the IC50 (Hep2 cells; Batch 3, read-out: IC50 on the growth of Hep2 cells (72 h)) was 126 µM, the IC50 (Hep2 cells; average, read-out: IC50 on the growth of Hep2 cells (72 h)) was 92 µM and the IC50 (MKN-28 cells; Average, read-out: IC50 on the growth of MKN-28 cells (72 h)) was 16.2 µM. It also gave an IC50 (MKN-28 cells; Batch 1, read-out: IC50 on the growth of MKN-28 cells (72 h)) of 15.1 µM, an IC50 (MKN-28 cells; Batch 2, read-out: IC50 on the growth of MKN-28 cells (72 h)) of 17.1 µM and an IC50 (MKN-28 cells; Batch 3, read-out: IC50 on the growth of MKN-28 cells (72 h)) of 16.5 µM.
